ChEMBL document CHEMBL2203016, “Purpuroines A-J, halogenated alkaloids from the sponge Iotrochota purpurea with antibiotic activity and regulation of tyrosine kinases” (Bioorg Med Chem, 2012)
Converted amounts (≈) assume the structure as drawn. The source made the active and inactive calls. No cut-off for these calls is given here.

Experiments:
Aspergillus flavus = experiment: Antimicrobial activity against Aspergillus flavus by microplate reader analysis; assay type: functional, organism-based
Fusarium oxysporum = experiment: Antimicrobial activity against Fusarium oxysporum by microplate reader analysis; assay type: functional, organism-based
Pseudomonas aeruginosa = experiment: Antimicrobial activity against Pseudomonas aeruginosa by microplate reader analysis; assay type: functional, organism-based
Saccharomyces cerevisiae = experiment: Antimicrobial activity against Saccharomyces cerevisiae by microplate reader analysis; assay type: functional, organism-based
Staphylococcus aureus = experiment: Antimicrobial activity against Staphylococcus aureus by microplate reader analysis; assay type: functional, organism-based
Escherichia coli = experiment: Antimicrobial activity against Escherichia coli by microplate reader analysis; assay type: functional, organism-based
Aspergillus fumigatus [1] = experiment: Antimicrobial activity against Aspergillus fumigatus at 20 ug/ml by microplate reader analysis; assay type: functional, organism-based
Candida albicans [2] = experiment: Antimicrobial activity against Candida albicans at 20 ug/ml by microplate reader analysis; assay type: functional, organism-based
Streptococcus pneumoniae [3] = experiment: Antimicrobial activity against Streptococcus pneumoniae at 20 ug/ml by microplate reader analysis; assay type: functional, organism-based
Aspergillus fumigatus [4] = experiment: Antimicrobial activity against Aspergillus fumigatus by microplate reader analysis; assay type: functional, organism-based
Candida albicans [5] = experiment: Antimicrobial activity against Candida albicans by microplate reader analysis; assay type: functional, organism-based
Streptococcus pneumoniae [6] = experiment: Antimicrobial activity against Streptococcus pneumoniae by microplate reader analysis; assay type: functional, organism-based
[7] = biological target: Serine/threonine-protein kinase PLK1 (Homo sapiens, UniProt P53350); experiment: Inhibition of PLK1
Sequence of Serine/threonine-protein kinase PLK1 (P53350 whole entry): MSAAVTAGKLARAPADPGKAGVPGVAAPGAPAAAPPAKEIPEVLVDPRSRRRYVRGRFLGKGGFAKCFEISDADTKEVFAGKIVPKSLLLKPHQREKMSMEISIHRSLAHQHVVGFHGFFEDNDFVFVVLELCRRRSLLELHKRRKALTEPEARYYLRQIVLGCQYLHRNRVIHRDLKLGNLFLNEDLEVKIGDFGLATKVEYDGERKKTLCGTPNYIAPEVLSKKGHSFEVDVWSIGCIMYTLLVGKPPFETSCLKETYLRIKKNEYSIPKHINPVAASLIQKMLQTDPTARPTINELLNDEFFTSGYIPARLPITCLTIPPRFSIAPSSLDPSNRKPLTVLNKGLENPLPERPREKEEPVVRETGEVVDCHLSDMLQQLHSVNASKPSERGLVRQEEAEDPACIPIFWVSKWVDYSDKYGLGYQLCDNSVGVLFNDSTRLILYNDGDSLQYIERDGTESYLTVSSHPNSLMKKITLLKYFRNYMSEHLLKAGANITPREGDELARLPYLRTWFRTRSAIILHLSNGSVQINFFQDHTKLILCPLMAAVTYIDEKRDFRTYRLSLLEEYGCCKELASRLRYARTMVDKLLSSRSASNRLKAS

[8] = biological target: Cyclin-dependent kinase 2 (Homo sapiens, UniProt P24941); experiment: Inhibition of CDK2
[9] = biological target: Tyrosine-protein kinase Lck (Homo sapiens, UniProt P06239); experiment: Inhibition of LCK
Sequence of Tyrosine-protein kinase Lck (P06239 whole entry): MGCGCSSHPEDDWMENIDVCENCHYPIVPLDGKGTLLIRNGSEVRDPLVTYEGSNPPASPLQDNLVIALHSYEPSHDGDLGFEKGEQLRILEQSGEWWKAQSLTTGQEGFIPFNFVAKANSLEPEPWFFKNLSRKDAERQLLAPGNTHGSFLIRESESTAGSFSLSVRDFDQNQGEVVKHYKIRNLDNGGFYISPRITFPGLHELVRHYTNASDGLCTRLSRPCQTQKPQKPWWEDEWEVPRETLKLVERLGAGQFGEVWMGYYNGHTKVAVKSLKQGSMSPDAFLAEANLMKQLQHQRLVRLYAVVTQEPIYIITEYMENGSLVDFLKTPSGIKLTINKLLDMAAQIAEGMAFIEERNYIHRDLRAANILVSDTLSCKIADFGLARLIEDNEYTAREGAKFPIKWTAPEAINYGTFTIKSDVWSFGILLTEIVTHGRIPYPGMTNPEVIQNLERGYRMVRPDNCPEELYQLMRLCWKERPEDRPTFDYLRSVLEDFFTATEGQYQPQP

[10] = Aspergillus fumigatus, read-out: IC50
[11] = Candida albicans, read-out: IC50
[12] = Streptococcus pneumoniae, read-out: IC50

Structure (SMILES) | Activity (Aspergillus flavus) | Activity (Fusarium oxysporum) | Activity (Pseudomonas aeruginosa) | Activity (Saccharomyces cerevisiae) | Activity (Staphylococcus aureus) | Activity (Escherichia coli) | Activity (Aspergillus fumigatus [1]) | Activity (Candida albicans [2]) | Activity (Streptococcus pneumoniae [3]) | IC50 (Aspergillus fumigatus [4]; [10]) [µg/mL] | IC50 (Candida albicans [5]; [11]) [µg/mL] | IC50 (Streptococcus pneumoniae [6]; [12]) [µg/mL] | IC50 [7] [µM] | IC50 [8] [µM] | IC50 [9] [µM] | IC50 (Candida albicans [5]) | IC50 (Streptococcus pneumoniae [6]) | IC50 (Aspergillus fumigatus [4])
C[N+](C)(C)[C@H](CCOc1c(Cl)cc(Br)cc1Br)C(=O)[O-] | Active | Active | Active | Active | Active | Active | inactive | inactive | inactive |  |  |  |  |  |  |  |  | 
COC(=O)[C@@H](Cc1c[nH]c2cc(Br)ccc12)[N+](C)(C)C (racemic) | Active | Active | Active | Active | Active | Active | inactive | inactive | inactive |  |  |  |  |  |  |  |  | 
C[C@@H]1[C@H](O)[C@@H](C)/C=C/C=C/C=C/C=C/C=C/C=C/C=C/[C@H](O[C@@H]2O[C@H](C)[C@@H](O)[C@H](N)[C@@H]2O)C[C@@H]2O[C@](O)(C[C@@H](O)C[C@@H](O)[C@H](O)CC[C@@H](O)C[C@@H](O)CC(=O)O[C@H]1C)C[C@H](O)[C@H]2C(=O)O [AMPHOTERICIN B] |  |  |  |  |  |  |  |  |  | 3.27 (≈ 3.54 µM) | 4.26 (≈ 4.61 µM) |  |  |  |  |  |  | 
CC1(C)S[C@@H]2[C@H](NC(=O)[C@H](N)c3ccccc3)C(=O)N2[C@H]1C(=O)O [AMPICILLIN] |  |  |  |  |  |  |  |  |  |  |  | 0.38 (≈ 1.09 µM) |  |  |  |  |  | 
C[N+](C)(C)[C@H](CCOc1c(Br)cc(Br)cc1Br)C(=O)[O-] [PURPUROINE A] |  |  |  |  |  |  |  |  |  | 28.6 (≈ 60.3 µM) |  |  | > 105 | > 105 | 4.96 | Not Active | Not Active | 
C[N+](C)(C)[C@H](CCOc1ccc(Br)cc1Br)C(=O)[O-] [PURPUROINE B] | Active | Active | Active | Active | Active | Active | inactive | inactive | inactive |  |  |  | > 127 | > 127 | 32.3 |  |  | 
C[N+](C)(C)[C@H](CCOc1c(Cl)cc(Br)cc1Cl)C(=O)[O-] [PURPUROINE C] |  |  |  |  |  |  |  |  |  | 26.1 (≈ 67.7 µM) |  |  | 17.8 | > 130 | 11.7 | Not Active | Not Active | 
C[N+](C)(C)[C@H](CCOc1c(Br)cc(Br)cc1I)C(=O)[O-] [PURPUROINE D] |  |  |  |  |  |  |  |  |  | 25.6 (≈ 49.1 µM) | 19 (≈ 36.5 µM) |  | 2.78 | > 96 | 1.8 |  | Not Active | 
COc1c(I)cc(C[C@H](C(=O)[O-])[N+](C)(C)C)cc1I [PURPUROINE F] | Active | Active | Active | Active | Active | Active | inactive | inactive | inactive |  |  |  | 9.24 | > 102 | 14.7 |  |  | 
C[N+](C)(C)[C@H](Cc1cc(I)c(O)c(I)c1)C(=O)[O-] [PURPUROINE G] | Active | Active | Active | Active | Active | Active | inactive | inactive | inactive |  |  |  | 21.2 | > 105 | 25 |  |  | 
COc1c(Br)cc(C[C@H](C(=O)[O-])[N+](C)(C)C)cc1I [PURPUROINE H] |  |  |  |  |  |  |  |  |  |  |  |  | 17.1 | > 113 | 17.9 |  |  | 
C[N+](C)(C)[C@H](Cc1cc(Br)c(O)c(I)c1)C(=O)[O-] [PURPUROINE I] |  |  |  |  |  |  | inactive | inactive | inactive |  |  | 18.1 (≈ 42.2 µM) | > 117 | > 117 | > 117 | Not Active |  | Not Active
